Reference: patent US10597388B2, “Pyridazinone herbicides” (FMC CORPORATION, priority 2014, dated 2020)

Legend:
Assay in all cases: Test D controlled growth environment herbicide test, pre- and postemergence
Assay type in all cases: in vivo
[1] = system: ryegrass, Italian (Italian ryegrass, Lolium multiflorum)
Outline: (§1)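 Rating is visual, 0–100 scale (100 = complete control), made against untreated plants 14–21 d after treatment in controlled growth conditions. Postemergence sprays went onto 1- to 4-leaf plants in peat medium; preemergence sprays onto silt loam after sowing; formulation included a surfactant.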

[2] = system: foxtail, green (green foxtail, Setaria viridis)
Outline: as §1

[3] = system: chamomile (scentless chamomile, Matricaria inodora)
Outline: as §1

[4] = system: oilseed rape (Brassica napus)
Outline: as §1

[5] = system: blackgrass (Alopecurus myosuroides)
Outline: as §1

[6] = system: kochia (Kochia scoparia)
Outline: as §1

[7] = system: bromegrass, downy (downy bromegrass, Bromus tectorum)
Outline: as §1

[8] = system: galium (catchweed bedstraw, Galium aparine)
Outline: as §1

[9] = system: pigweed (Amaranthus retroflexus)
Outline: as §1

[10] = system: deadnettle (henbit deadnettle, Lamium amplexicaule)
Outline: as §1

[11] = system: speedwell (bird's-eye speedwell, Veronica persica)
Outline: as §1

[12] = system: windgrass (Apera spica-venti)
Outline: as §1

[13] = system: mustard, wild (wild mustard, Sinapis arvensis)
Outline: as §1

[14] = system: buckwheat, wild (wild buckwheat, Polygonum convolvulus)
Outline: as §1

[15] = Postemergence, 31 g ai/ha, scale 0 to 100 (0 no effect, 100 complete control)
[16] = Postemergence, 125 g ai/ha, visual rating on scale 0 (no effect) to 100 (complete control), 14 to 21 d
[17] = Postemergence, 250 g ai/ha, scale 0 to 100 (0 no effect, 100 complete control)
[18] = Preemergence, 62 g ai/ha, scale 0 to 100 (0 no effect, 100 complete control)
[19] = Preemergence, 125 g ai/ha, scale 0 to 100 (0 no effect, 100 complete control)
[20] = Preemergence, 250 g ai/ha, scale 0 to 100, 0 no effect, 100 complete control
[21] = postemergence, 62 g ai/ha, scale 0 to 100, 0 no effect, 100 complete control

COC(=O)Oc1c(C)nn(C)c(=O)c1-c1c(C)sc2ccc(C)cc12 [Compound 80]
85: Ryegrass, Italian plant response rating [1, 15] | Plant response rating, Blackgrass [5, 20] | Plant response rating, Bromegrass, Downy [7, 20] | Plant response rating, Speedwell [11, 16]
55: Plant response rating, Oilseed Rape [4, 21] | Bromegrass, Downy plant response rating [7, 15] | Plant response rating (scale of 0 to 100), Deadnettle ([10]; Preemergence, 31 g ai/ha)
20: Plant response rating (scale of 0 to 100), Foxtail, Green ([2]; Preemergence, 31 g ai/ha) | Plant response rating, Buckwheat, Wild [14, 19] | Plant response rating, Buckwheat, Wild [14, 20]
90: Plant response rating (scale of 0 to 100), Ryegrass, Italian ([1]; Preemergence, 31 g ai/ha) | Plant response rating, Ryegrass, Italian [1, 18] | Plant response rating, Foxtail, Green [2, 16] | Plant response rating, Foxtail, Green [2, 21] | Plant response rating, Blackgrass [5, 16] | Plant response rating, Blackgrass [5, 17] | Galium plant response rating [8, 15] | Plant response rating, Galium [8, 20] | Plant response rating, Windgrass [12, 18] | Plant response rating, Windgrass [12, 21]
50: Plant response rating, Deadnettle [10, 17] | Plant response rating, Mustard, Wild [13, 21]
40: Plant response rating, Oilseed Rape [4, 20] | Plant response rating, Galium [8, 18]
80: Plant response rating, Foxtail, Green [2, 18] | Chamomile plant response rating [3, 15] | Plant response rating, Blackgrass [5, 19] | Plant response rating, Blackgrass [5, 21] | Plant response rating, Galium [8, 19] | Plant response rating, Speedwell [11, 17]
15: Oilseed Rape plant response rating [4, 15]
35: Plant response rating (scale of 0 to 100), Oilseed Rape ([4]; Preemergence, 31 g ai/ha) | Plant response rating, Oilseed Rape [4, 18] | Plant response rating, Oilseed Rape [4, 19] | Plant response rating (scale of 0 to 100), Kochia ([6]; Preemergence, 31 g ai/ha) | Plant response rating, Bromegrass, Downy [7, 18] | Deadnettle plant response rating [10, 15] | Plant response rating, Deadnettle [10, 16] | Mustard, Wild plant response rating [13, 15]
70: Foxtail, Green plant response rating [2, 15] | Plant response rating (scale of 0 to 100), Blackgrass ([5]; Preemergence, 31 g ai/ha) | Plant response rating, Bromegrass, Downy [7, 16] | Plant response rating, Deadnettle [10, 19] | Plant response rating, Mustard, Wild [13, 16]
30: Plant response rating (scale of 0 to 100), Bromegrass, Downy ([7]; Preemergence, 31 g ai/ha)
0: Plant response rating (scale of 0 to 100), Mustard, Wild ([13]; Preemergence, 31 g ai/ha) | Plant response rating, Mustard, Wild [13, 18] | Plant response rating, Mustard, Wild [13, 19] | Plant response rating, Mustard, Wild [13, 20] | Plant response rating (scale of 0 to 100), Buckwheat, Wild ([14]; Preemergence, 31 g ai/ha)
25: Plant response rating (scale of 0 to 100), Galium ([8]; Preemergence, 31 g ai/ha) | Plant response rating, Deadnettle [10, 21] | Plant response rating, Buckwheat, Wild [14, 18]
100: Plant response rating, Ryegrass, Italian [1, 17] | Plant response rating, Ryegrass, Italian [1, 20] | Plant response rating, Foxtail, Green [2, 19] | Plant response rating, Foxtail, Green [2, 20] | Plant response rating, Chamomile [3, 16] | Plant response rating, Chamomile [3, 17] | Plant response rating, Chamomile [3, 18] | Plant response rating, Chamomile [3, 19] | Plant response rating, Chamomile [3, 20] | Kochia plant response rating [6, 15] | Plant response rating, Kochia [6, 16] | Plant response rating, Kochia [6, 17] | Plant response rating, Kochia [6, 19] | Plant response rating, Kochia [6, 20] | Plant response rating, Kochia [6, 21] | Plant response rating, Galium [8, 17] | Pigweed plant response rating [9, 15] | Plant response rating, Pigweed [9, 16] | Plant response rating, Pigweed [9, 17] | Plant response rating (scale of 0 to 100), Pigweed ([9]; Preemergence, 31 g ai/ha) | Plant response rating, Pigweed [9, 18] | Plant response rating, Pigweed [9, 19] | Plant response rating, Pigweed [9, 20] | Plant response rating, Pigweed [9, 21] | Plant response rating, Speedwell [11, 20] | Plant response rating, Mustard, Wild [13, 17] | Buckwheat, Wild plant response rating [14, 15] | Plant response rating, Buckwheat, Wild [14, 16] | Plant response rating, Buckwheat, Wild [14, 17] | Plant response rating, Buckwheat, Wild [14, 21]
75: Plant response rating, Oilseed Rape [4, 17] | Blackgrass plant response rating [5, 15] | Plant response rating, Blackgrass [5, 18] | Plant response rating, Kochia [6, 18] | Plant response rating, Bromegrass, Downy [7, 17] | Plant response rating, Bromegrass, Downy [7, 19] | Plant response rating, Deadnettle [10, 20] | Plant response rating, Speedwell [11, 21] | Windgrass plant response rating [12, 15] | Plant response rating (scale of 0 to 100), Windgrass ([12]; Preemergence, 31 g ai/ha)
95: Plant response rating, Ryegrass, Italian [1, 19] | Plant response rating, Ryegrass, Italian [1, 21] | Plant response rating, Foxtail, Green [2, 17] | Plant response rating (scale of 0 to 100), Chamomile ([3]; Preemergence, 31 g ai/ha) | Plant response rating, Chamomile [3, 21] | Plant response rating, Galium [8, 16] | Plant response rating, Galium [8, 21] | Plant response rating, Speedwell [11, 18] | Plant response rating, Speedwell [11, 19] | Plant response rating, Windgrass [12, 16] | Plant response rating, Windgrass [12, 19]
65: Plant response rating, Oilseed Rape [4, 16] | Plant response rating, Bromegrass, Downy [7, 21] | Plant response rating, Deadnettle [10, 18] | Speedwell plant response rating [11, 15] | Plant response rating (scale of 0 to 100), Speedwell ([11]; Preemergence, 31 g ai/ha)
98: Plant response rating, Ryegrass, Italian [1, 16] | Plant response rating, Windgrass [12, 17] | Plant response rating, Windgrass [12, 20]
